Tests used:
[1] = molecular target: KRAS G12D (Homo sapiens, UniProt P01116, G12D); assay: GDP-GTP exchange assay (KRAS_G12D exchange); format: biochemical; settings: bodipy loaded KRAS G12D 2.5 nM; 4 hours incubation after GppNHp-SOS1; read-out: G12D_exchange
Method: Example A. GDP-GTP Exchange Assay
The inhibitor potency of the exemplified compounds was determined in a fluorescence based guanine nucleotide exchange assay, which measures the exchange of bodipy-GDP (fluorescently labeled GDP) for GppNHp (Non-hydrolyzable GTP analog) to generate the active state of KRAS in the presence of SOS1 (guanine nucleotide exchange factor). Inhibitors were serially diluted in DMSO and a volume of 0.1 μL was transferred to the wells of a black low volume 384-well plate. 5 μL/well volume of bodipy-loaded KRAS G12C diluted to 5 nM in assay buffer (25 mM Hepes pH 7.5, 50 mM NaCl, 10 mM MgCl2 and 0.01% Brij-35) was added to the plate and pre-incubated with inhibitor for 2 hours at ambient temperature. Appropriate controls (enzyme with no inhibitor or with a G12C inhibitor (AMG-510)) were included on the plate. The exchange was initiated by the addition of a 5 μL/well volume containing 1 mM GppNHp and 300 nM SOS1 in assay buffer. The 10 μL/well reaction concentration of the bodipy-loaded KRAS G12C, GppNHp, and SOS1 were 2.5 nM, 500 uM, and 150 nM, respectively. The reaction plates were incubated at ambient temperature for 2 hours, a time estimated for complete GDP-GTP exchange in the absence of inhibitor. For the KRAS G12D and G12V mutants, similar guanine nucleotide exchange assays were used with 2.5 nM as final concentration for the bodipy loaded KRAS proteins and with 4 hours and 3 hours incubation after adding GppNHp-SOS1 mixture for G12D and G12V respectively. A cyclic peptide described to selectively bind G12D mutant (Sakamoto et al., BBRC 484.3 (2017), 605-611) or internal compounds with confirmed binding were used as positive controls in the assay plates. Fluorescence intensities were measured on a PheraStar plate reader instrument (BMG Labtech) with excitation at 485 nm and emission at 520 nm.
Either GraphPad prism or XLfit was used to analyze the data. The IC50 values were derived by fitting the data to a four parameter logistic equation producing a sigmoidal dose-response curve with a variable Hill coefficient. Prism equation: Y=Bottom+(Top−Bottom)/(1+10^((Log lC50−X)*Hill slope)); XLfit equation: Y=(A+((B−A)/(1+((X/C)^D)))) where X is the logarithm of inhibitor concentration and Y is the response.

[2] = molecular target: KRAS G12C (Homo sapiens, UniProt P01116, G12C); assay: GDP-GTP exchange assay (KRAS_G12C exchange); format: biochemical; settings: bodipy-GDP loaded KRAS G12C 2.5 nM, SOS1 150 nM, GppNHp; 2 hours pre-incubation, 2 hours reaction; read-out: G12C_exchange
Summary of the method: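 Fluorescence exchange of bodipy-GDP for GppNHp, SOS1-driven, read at 485/520 nm; IC50 from four-parameter variable-slope fit. Both mutants used 2.5 nM final labelled protein and a 2 h compound pre-incubation. G12C reaction had 500 uM GppNHp and 150 nM SOS1 for 2 h; G12D ran 4 h.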

[3] = system: MIA PaCa-2 (KRAS G12C) cells; assay: Cellular pERK HTRF assay (KRAS_G12C pERK); format: cell-based, human; settings: Homo sapiens, MIA PaCa-2, 4 hours incubation, read-out: G12C_pERK
Summary of the method: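 Phospho-ERK1/2 HTRF readout (665 and 620 nm) in lysed MIA PaCa-2 cells, antibodies incubated overnight at room temperature. Cells seeded the day before and treated with G12C compounds for 4 h at 37 °C; IC50 fitted to percent inhibition against log inhibitor concentration.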

KRAS G12C, sequence (P01116 1-188 isoform P01116-2 G12C): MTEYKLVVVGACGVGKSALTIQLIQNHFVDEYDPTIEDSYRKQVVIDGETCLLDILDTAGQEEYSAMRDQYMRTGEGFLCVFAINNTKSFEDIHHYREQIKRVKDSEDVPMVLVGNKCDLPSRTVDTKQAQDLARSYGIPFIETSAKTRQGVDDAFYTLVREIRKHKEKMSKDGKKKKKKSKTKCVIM
KRAS G12D, sequence (P01116 1-188 isoform P01116-2 G12D): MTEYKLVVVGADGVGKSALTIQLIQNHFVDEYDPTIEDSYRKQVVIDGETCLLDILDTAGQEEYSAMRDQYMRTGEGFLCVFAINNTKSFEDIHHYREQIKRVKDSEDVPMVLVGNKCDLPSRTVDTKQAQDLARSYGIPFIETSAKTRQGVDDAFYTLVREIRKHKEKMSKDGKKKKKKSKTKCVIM

SMILES	IC50 [1] [nM]	IC50 [2] [nM]	IC50 [3] [nM]
CN(C)C1CN(c2nc3c(F)c(-c4cc(O)cc5ccccc45)c(Cl)cc3c3c2nc(CO)n3[C@H]2[C@H]3CN[C@@H]2C3)C1 (relative stereo) [Example 75, 4-(1-((endo)-2-azabicyclo[2.1.1]hexan-5-yl)-8-chloro-4-(3-(dimethylamino)-azetidin-1-yl)-6-fluoro-2-(hydroxymethyl)-1H-imidazo[4,5-c]quinolin-7-yl)naphthalen-2-ol]	100 to 1000		
CN(C)C1CN(c2nc3c(F)c(-c4cc(O)cc5ccccc45)c(Cl)cc3c3c2nc(-c2cn(C)cn2)n3[C@H]2[C@H]3CN[C@@H]2C3)C1 [Example 78, 4-(1-((endo)-2-azabicyclo[2.1.1]hexan-5-yl)-8-chloro-4-(3-(dimethylamino)-azetidin-1-yl)-6-fluoro-2-(1-methyl-1H-imidazol-4-yl)-1H-imidazo[4,5-c]quinolin-7-yl)naphthalen-2-ol]	100 to 1000		
Cc1nc2c(N3CC(N(C)C)C3)nc3c(F)c(-c4cc(O)cc5ccccc45)c(Cl)cc3c2n1[C@H]1[C@H]2CN[C@@H]1C2 [Example 15, 4-(1-((endo)-2-azabicyclo[2.1.1]hexan-5-yl)-8-chloro-4-(3-(dimethylamino)-azetidin-1-yl)-6-fluoro-2-methyl-1H-imidazo[4,5-c]quinolin-7-yl)naphthalen-2-ol]	1000 to 5000		
CN(C)C1CN(c2nc3c(F)c(-c4cc(O)cc5ccccc45)c(C#N)cc3c3c2ncn3[C@H]2[C@H]3CN[C@@H]2C3)C1 (relative stereo) [Example 50, 1-((endo)-2-azabicyclo[2.1.1]hexan-5-yl)-4-(3-(dimethylamino)azetidin-1-yl)-6-fluoro-7-(3-hydroxynaphthalen-1-yl)-1H-imidazo[4,5-c]quinoline-8-carbonitrile]	100 to 1000		
CN(C)C(=O)CCc1nc2c(-c3ccc(=O)n(C)c3)nc3c(F)c(-c4cc(O)cc5ccccc45)c(CCC#N)cc3c2n1C1C2CNC1C2 (stereo not drawn) [Example 298, 3-(1-((endo)-2-azabicyclo[2.1.1]hexan-5-yl)-8-(2-cyanoethyl)-6-fluoro-7-(3-hydroxynaphthalen-1-yl)-4-(1-methyl-6-oxo-1,6-dihydropyridin-3-yl)-1H-imidazo[4,5-c]quinolin-2-yl)-N,N-dimethylpropanamide]	≤ 100		
CN(C)C1CN(c2nc3c(F)c(-c4cc(O)cc5ccccc45)c(Cl)cc3c3c2ncn3[C@H]2[C@H]3CN[C@@H]2C3)C1 (single isomer, unassigned) [Example 48a, 4-(1-((endo)-2-azabicyclo[2.1.1]hexan-5-yl)-8-chloro-4-(3-(dimethylamino)azetidin-1-yl)-6-fluoro-1H-imidazo[4,5-c]quinolin-7-yl)naphthalen-2-ol]	100 to 1000		
CN(C)C(=O)CCc1nc2c(N3CC(N(C)C)C3)nc3c(Oc4ccccc4)c(-c4cc(O)cc5ccccc45)c(CCC#N)cc3c2n1C1C2CNC1C2 (stereo not drawn) [Example 293, 3-(1-((endo)-2-azabicyclo[2.1.1]hexan-5-yl)-8-(2-cyanoethyl)-4-(3-(dimethylamino)azetidin-1-yl)-7-(3-hydroxynaphthalen-1-yl)-6-phenoxy-1H-imidazo[4,5-c]quinolin-2-yl)-N,N-dimethylpropanamide]	100 to 1000		
Oc1cc(-c2c(Cl)cc3c(nc(N4C5CCC4CNC5)c4ncn([C@H]5[C@H]6CN[C@@H]5C6)c43)c2F)c2ccccc2c1 (single isomer, unassigned) [Example 35a, 4-(1-((endo)-2-azabicyclo[2.1.1]hexan-5-yl)-4-(3,8-diazabicyclo[3.2.1]octan-8-yl)-8-chloro-6-fluoro-1H-imidazo[4,5-c]quinolin-7-yl)naphthalen-2-ol]	1000 to 5000		
CN(C)C1CN(c2nc3c(F)c(-c4cc(O)cc5ccccc45)c(Cl)cc3c3c2nc(CCN)n3[C@H]2[C@H]3CN[C@@H]2C3)C1 [Example 76, 4-(2-(2-aminoethyl)-1-((endo)-2-azabicyclo[2.1.1]hexan-5-yl)-8-chloro-4-(3-(dimethylamino)azetidin-1-yl)-6-fluoro-1H-imidazo[4,5-c]quinolin-7-yl)naphthalen-2-ol]	100 to 1000		
CN(C)C(=O)CCc1nc2c(N3CC(N(C)C)C3)nc3c(Cc4ccccc4)c(-c4cc(O)cc5ccccc45)c(CCC#N)cc3c2n1[C@@H]1[C@@H]2CN[C@H]1C2 (racemic) [Example 294, 3-(6-benzyl-1-((endo)-2-azabicyclo[2.1.1]hexan-5-yl)-8-(2-cyanoethyl)-4-(3-(dimethylamino)azetidin-1-yl)-7-(3-hydroxynaphthalen-1-yl)-1H-imidazo[4,5-c]quinolin-2-yl)-N,N-dimethylpropanamide]	100 to 1000		
Cc1cccc(-c2c(C)cc3c(nc(-n4ccnc4C)c4nnn([C@H]5CCN(C(=O)/C=C/CN(C)C)[C@H](CC#N)C5)c43)c2F)c1Cl [Example 252, 2-((2S,4S)-4-(7-(2-chloro-3-methylphenyl)-6-fluoro-8-methyl-4-(2-methyl-1H-imidazol-1-yl)-1H-[1,2,3]triazolo[4,5-c]quinolin-1-yl)-1-((E)-4-(dimethylamino)but-2-enoyl)piperidin-2-yl)acetonitrile]		≤ 100	≤ 100
C=CC(=O)N1C[C@H](n2cnc3c(N4CC(N(C)C)C4)nc4c(F)c(-c5cc(O)cc6ccccc56)c(Cl)cc4c32)C[C@@H]1CC#N [Example 32, 2-((2R,4R)-1-acryloyl-4-(8-chloro-4-(3-(dimethylamino)azetidin-1-yl)-6-fluoro-7-(3-hydroxynaphthalen-1-yl)-1H-imidazo[4,5-c]quinolin-1-yl)pyrrolidin-2-yl)acetonitrile]		≤ 100	≤ 100

The remaining lines, values ahead:

IC50 [1] [nM]	IC50 [2] [nM]	IC50 [3] [nM]	SMILES
≤ 100			CN(Cc1ccccn1)C(=O)CCc1nc2c(N3CC(N(C)C)C3)nc3c(F)c(-c4cc(O)cc5ccccc45)c(CCC#N)cc3c2n1C1C2CNC1C2 (stereo not drawn) [Example 301a, 3-(1-((endo)-2-azabicyclo[2.1.1]hexan-5-yl)-8-(2-cyanoethyl)-4-(3-(dimethylamino)azetidin-1-yl)-6-fluoro-7-(3-hydroxynaphthalen-1-yl)-1H-imidazo[4,5-c]quinolin-2-yl)-N-methyl-N-(pyridin-2-ylmethyl)propanamide]
≤ 100			CCc1nc2c(N3CC(N(C)C)C3)nc3c(F)c(-c4cc(O)cc5ccccc45)c(CCC#N)cc3c2n1C1C2CC1N(Cc1ccc[nH]1)C2 (single isomer, unassigned) [Example 296b, 3-(1-((endo)-2-((1H-pyrrol-2-yl)methyl)-2-azabicyclo[2.1.1]hexan-5-yl)-4-(3-(dimethylamino)azetidin-1-yl)-2-ethyl-6-fluoro-7-(3-hydroxynaphthalen-1-yl)-1H-imidazo[4,5-c]quinolin-8-yl)propanenitrile]
≤ 100			CN(C)C1CN(c2nc3c(F)c(-c4cc(O)cc5ccccc45)c(CCC#N)cc3c3c2nc(-c2csc(N4CCNCC4)n2)n3C2C3CNC2C3)C1 (single isomer, unassigned) [Example 302a, 3-(1-((endo)-2-azabicyclo[2.1.1]hexan-5-yl)-4-(3-(dimethylamino)azetidin-1-yl)-6-fluoro-7-(3-hydroxynaphthalen-1-yl)-2-(2-(piperazin-1-yl)thiazol-4-yl)-1H-imidazo[4,5-c]quinolin-8-yl)propanenitrile]
	≤ 100	≤ 100	Cc1cc2c(nc(OC[C@@H]3CCCN3C)c3nnn([C@H]4CCN(C(=O)/C=C/CN(C)C)[C@H](CC#N)C4)c32)c(F)c1-c1ccccc1C(F)(F)F [Example 158a, 2-((2S,4S)-1-((E)-4-(dimethylamino)but-2-enoyl)-4-(6-fluoro-8-methyl-4-(((S)-1-methylpyrrolidin-2-yl)methoxy)-7-(2-(trifluoromethyl)phenyl)-1H-[1,2,3]triazolo[4,5-c]quinolin-1-yl)piperidin-2-yl)acetonitrile]
